Laboratory results from patent US20240366649A1, “4-ETHYNYL-3-HYDROXY-TETRAHYDROFURANYL-ADENINE PHOSPHORAMIDATES AND RELATED COMPOUNDS AND THEIR USE IN TREATING MEDICAL CONDITIONS” (ROME THERAPEUTICS, INC., priority 2021, published 2024).

Columns and labels:
Assay type in all cases: cell-based
[1] = system: Ovarian cancer SK-OV-3 cells; test: Cancer cell viability assay with 3D cell colonies (CellTiter-Glo), SK-OV-3; details: Homo sapiens, 168 h; SK-OV-3, 3D methylcellulose colonies, 7 days
Procedure: (§1) Cancer cell lines were cultured in the following media: • Ovarian cancer OVCAR-8 cells—RPMI media containing 10% FBS • Ovarian cancer SK-OV-3 cells—McCoy's 5a media containing 10% FBS • Ovarian cancer SW756 cells—L-15 (100% air)+10% FBS • Esophageal cancer TE-1 cells—RPMI-1640+10% FBS • Esophageal cancer KYSE-410 cells—RPMI-1640+5˜10% FBS • Esophageal cancer KYSE-70 cells—RPMI-1640+10% h.i.FBS. • Pharyngeal cancer FaDu cells—MEM+0.01 mM NEAA+10% FBS
(§2) Cell colony formation was tested using a 3D methylcellulose-based CellTiter-Glo (CTG) viability assay (Cat. No: G7573, Promega). Briefly, cells were inoculated into 96-well plates (at 1,500 cells per well) into a solution of 0.65% methylcellulose in growth media and incubated overnight at 37° C. in 5% CO2. The next day, serially diluted test compound (islatravir, 4′-ethynyl-2-fluoro-2′-deoxyadenosine) or positive control (cisplatin, Cat. No. 6J015A89, Qilu Pharma) were added at the indicated concentrations, and the cells were incubated for 7 days. On day seven, 100 μL of CTG reagent was added, and the plates were incubated at room temperature for 20 min. Luminescence was read on an Envision Multi Label Reader according to manufacturer's instructions. IC50 values were determined using the following calculation: […]

[2] = system: Ovarian cancer SW756 cells; test: Cancer cell viability assay with 3D cell colonies (CellTiter-Glo), SW756; details: Homo sapiens, 168 h; SW756, 3D methylcellulose colonies, 7 days
Procedure: as §1, §2

[3] = target: LINE1 reverse transcriptase (Homo sapiens, UniProt O00370); test: Stable artificial-intron Cis LINE1 reporter assay; parameters: expressed in transfected cells; details: HeLa L1 artificial-intron reporter cells, doxycycline-induced, 72 h, Firefly luciferase activity
Chain of LINE1 reverse transcriptase (O00370 whole entry, looked up): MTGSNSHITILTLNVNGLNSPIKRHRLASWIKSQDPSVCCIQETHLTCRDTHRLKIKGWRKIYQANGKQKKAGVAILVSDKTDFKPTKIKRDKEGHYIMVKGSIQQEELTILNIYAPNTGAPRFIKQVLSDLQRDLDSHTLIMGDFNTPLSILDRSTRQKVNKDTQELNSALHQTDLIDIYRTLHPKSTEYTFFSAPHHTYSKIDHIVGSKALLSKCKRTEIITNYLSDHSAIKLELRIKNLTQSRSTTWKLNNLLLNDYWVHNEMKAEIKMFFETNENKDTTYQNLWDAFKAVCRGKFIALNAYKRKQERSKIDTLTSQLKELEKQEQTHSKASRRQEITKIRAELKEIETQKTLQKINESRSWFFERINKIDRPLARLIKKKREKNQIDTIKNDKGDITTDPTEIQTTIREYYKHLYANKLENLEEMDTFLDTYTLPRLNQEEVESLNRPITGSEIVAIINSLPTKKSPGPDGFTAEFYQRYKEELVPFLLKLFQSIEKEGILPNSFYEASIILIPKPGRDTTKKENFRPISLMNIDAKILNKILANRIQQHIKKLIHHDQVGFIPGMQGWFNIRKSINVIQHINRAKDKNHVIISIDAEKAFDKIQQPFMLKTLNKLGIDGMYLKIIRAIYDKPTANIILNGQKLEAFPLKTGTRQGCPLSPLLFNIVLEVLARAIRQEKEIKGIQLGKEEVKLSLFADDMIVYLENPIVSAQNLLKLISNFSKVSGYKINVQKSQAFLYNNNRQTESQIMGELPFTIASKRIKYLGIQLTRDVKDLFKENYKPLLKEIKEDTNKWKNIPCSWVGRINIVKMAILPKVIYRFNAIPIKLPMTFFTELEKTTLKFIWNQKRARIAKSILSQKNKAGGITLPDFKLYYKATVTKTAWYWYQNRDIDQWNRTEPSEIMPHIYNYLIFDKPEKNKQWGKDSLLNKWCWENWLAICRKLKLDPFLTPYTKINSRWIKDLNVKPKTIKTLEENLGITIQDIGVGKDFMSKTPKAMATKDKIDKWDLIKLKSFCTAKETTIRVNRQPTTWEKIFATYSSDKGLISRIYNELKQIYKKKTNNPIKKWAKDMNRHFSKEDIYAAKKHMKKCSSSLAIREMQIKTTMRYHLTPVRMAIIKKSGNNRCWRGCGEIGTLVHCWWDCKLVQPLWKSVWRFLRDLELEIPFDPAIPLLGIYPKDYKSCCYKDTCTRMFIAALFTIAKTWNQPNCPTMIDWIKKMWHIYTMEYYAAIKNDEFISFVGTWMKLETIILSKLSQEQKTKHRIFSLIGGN
Text: A stable HeLa Tet-On 3G (Takara, cat no 631183) cell line expressing a bi-directional inducible LINE1 construct was generated as described in Xie, Y. et al. “Cell division promotes efficient retrotransposition in a stable L1 reporter cell line,” Mobile DNA (2013) 4:10. Single cell clones were screened for high Luciferase expression and the highest expression Firefly expressing clone was chosen for compound testing.
Test compounds were serially diluted in DMSO and spotted in 96-well plates. Subsequently the HeLa L1 artificial-intron reporter cells were plated into the compound-containing wells (8,000 cells/well), and the cells were induced for reporter expression with doxycycline (Sigma cat no D9891) at a final concentration of 500 ng/mL. Luminescence was measured 72 h after plating using the Dual-Glo Luciferase Assay System (Promega cat no E2940) following the manufacturer's instructions. The Firefly Luciferase activity (normalized against its activity in a control well without test compound) was used to report LINE1 activity.

[4] = system: Pharyngeal cancer FaDu cells; test: Cancer cell viability assay with 3D cell colonies (CellTiter-Glo), FaDu; details: Homo sapiens, 168 h, 3D methylcellulose colonies, 7 days
Procedure: as §1, §2

[5] = system: IFN production in THP1 TREX1 KO cells; test: Cellular assay for altering IFN production in THP1 TREX1 KO cells; details: FIG. 6-8, % induction versus compound concentration
Procedure: THP1-Dual™ KO-TREX1 cells were purchased from Invivogen (cat #thpd-kotrex). The THP1-Dual™ KO-TREX1 cells were cultured in RPMI 1640, 10% heat-inactivated fetal bovine serum, 25 mM HEPES, 10 μg/mL Blasticidin, and […] Zeocin. THP1-Dual™ KO-TREX cells were treated with a dose titration of test compound in the presence of 1 μM 5-aza-2′-deoxycytidine (Sigma, cat #189825). Type 1 Interferon and cell viability were assessed after five days of treatment.
Stock solution of test compound was prepared in DMSO followed by a three-fold dilution in DMSO. Additional 50× dilution was prepared in cell culture media for each dilution. 10 μL of diluted test compound was then added to a 384-well plate.
THP1-Dual™ KO-TREX1 cells were treated with 1 μM 5-aza-2′-deoxycytidine. THP1-Dual™ KO-TREX1 cells (50 μL) were added to each well of the 384-well plate containing test compound titration at 10,000 cells/well. Cells were incubated at 37° C., 5% CO2 in a humidified incubator for five days. On day five, 20 μL of cell supernatant was transferred to a 384-well, white-walled plate, followed by addition to each well of 50 μL of QUANTI-LUC solution containing stabilizer. Luminescence was detected on a plate reader according to manufacturer's instructions.
For certain compounds, the assay was run in a 96-well format, with the following modifications: • 190 μL, instead of 50 μL, of cells were added to each well, to provide 50,000 cells/well, instead of 10,000 cells/well, • Cells were incubated for 6 days, instead of 5 days, • 25 μL, instead of 20 μL, of cell supernatant was added to the white-walled plate for QUANT-LUC treatment; and • 25 μL, instead of 30 μL, of CellTiter-Glo was added to assess cell viability.
Percent inhibition of interferon was calculated using the following analysis: (Average DMSO-Sample)/(Average DMSO-Average 30 μM control reagent)*100. The control reagent for inhibition of interferon was a specific nucleoside reverse-transcriptase inhibitor with molecular weight <600 a.m.u. Percent induction of interferon was calculated using the following analysis: (Sample-Average DMSO)/(10 μM control reagent-Average DMSO)*100. The control reagent for induction of interferon was compound 8 (4′-ethynyl-2-chloro-2′-deoxyadenosine).

[6] = system: Esophageal cancer KYSE-70 cells; test: Cancer cell viability assay with 3D cell colonies (CellTiter-Glo), KYSE-70; details: Homo sapiens, 168 h; KYSE-70, 3D methylcellulose colonies, 7 days
Procedure: as §1, §2

[7] = system: Ovarian cancer OVCAR-8 cells; test: Cancer cell viability assay with 3D cell colonies (CellTiter-Glo), OVCAR-8; details: Homo sapiens, 168 h; OVCAR-8, 3D methylcellulose colonies, 7 days
Procedure: as §1, §2

Structure (SMILES): C#C[C@]1(CO)O[C@@H](n2cnc3c(N)nc(F)nc32)C[C@@H]1O [islatravir, 4′-ethynyl-2-fluoro-2′-deoxyadenosine]
- IC50 [1]: ≤ 10 µM
- IC50 [2]: > 30 µM
- IC50 [3]: ≤ 0.05 µM
- IC50 [4]: 10 to 30 µM
- change in IFN levels (figure) [5]: induction of IFN
- IC50 [6]: 10 to 30 µM
- IC50 [7]: ≤ 10 µM
